For data set [1], the target named is 11β-HSD1 (Homo sapiens, UniProt P28845). As to the kind of experiment: Enzymatic assay, 11β-HSD1 reductase activity (conversion of cortisone into cortisol). It is filed as biochemical. The following applies: recombinant protein, 2 μM cortisone, 45 minutes at 37° C.; read-out: [C1] HSD1-prot Reduct Score. Here is the method:
The effects of compounds on 11β-HSD1 dependent conversion of cortisone into cortisol (reductase activity) was studied in a reaction mixture containing 30 mM Tris-HCl buffer pH 7.2, 180 μM NADPH, 1 mM EDTA, 2 μM cortisone, 1 μl drug and/or solvent and 11 μg recombinant protein in a final volume of 100 μl.
(§1) All incubations were performed for 45 minutes at 37° C. in a water bath. The reaction was stopped by adding 100 μl acetonitrile containing 20 μg corticosterone as internal standard. After centrifugation, the product formation was analysed in the supernatant by HPLC on a Hypersyl BDS-C18 column using 0.05 mM ammonium acetate/methanol (50/50) as solvent. In all of the aforementioned assays, the drugs to be tested were taken from a stock solution and tested at a final concentration ranging from −10^−5M to 3·10^−9M. From the thus obtained dose response curves, the pIC50 value was calculated and scored as follows; Score 1=pIC50 value<5, Score 2=pIC50 value in the range of 5 to 6, Score 3=pIC50 value>6. Some of the thus obtained results are summarized in the table below (in this table NT stands for Not Tested).

The target of data set [2] is T1, 11β-HSD1 (Mus musculus, UniProt P50172).
T1 construct: endogenous in cells; host or cells: 3T3-L1 (ATCC-CL-173), differentiated into adipocytes
T1 sequence (P50172 whole entry): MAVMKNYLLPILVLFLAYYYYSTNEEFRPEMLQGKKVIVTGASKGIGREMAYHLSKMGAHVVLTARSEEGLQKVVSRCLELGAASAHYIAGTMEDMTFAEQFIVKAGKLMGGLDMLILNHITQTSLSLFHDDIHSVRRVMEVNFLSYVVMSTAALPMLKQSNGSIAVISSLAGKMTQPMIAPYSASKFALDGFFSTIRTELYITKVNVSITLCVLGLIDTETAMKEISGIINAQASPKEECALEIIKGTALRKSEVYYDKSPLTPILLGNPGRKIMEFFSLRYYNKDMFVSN
As to the kind of experiment: Cellular assay, 11β-HSD1 activity in differentiated 3T3-L1 cells. It is filed as cell-based. The following applies: 4 hour pre-incubation, read-out: [C2] HSD1 cellular 3T3-L1 Score. As for the experimental part:
The effects on 11β-HSD1 activity was measured in differentiated 3T3-L1 cells and rat hepatocytes.
Medium was refreshed twice a week.
One hour later, the medium was extracted on Extrelut^3-columns with 15 ml diethyl ether and the extract was analysed by HPLC as described above.
As for the enzymatic assays, the compounds to be tested were taken from a stock is solution and tested at a final concentration ranging from −10^−5M to 3·10^−9M.

The target of data set [3] is T2, 11β-HSD2 (Homo sapiens, UniProt P80365).
T2 sequence (P80365 1-405): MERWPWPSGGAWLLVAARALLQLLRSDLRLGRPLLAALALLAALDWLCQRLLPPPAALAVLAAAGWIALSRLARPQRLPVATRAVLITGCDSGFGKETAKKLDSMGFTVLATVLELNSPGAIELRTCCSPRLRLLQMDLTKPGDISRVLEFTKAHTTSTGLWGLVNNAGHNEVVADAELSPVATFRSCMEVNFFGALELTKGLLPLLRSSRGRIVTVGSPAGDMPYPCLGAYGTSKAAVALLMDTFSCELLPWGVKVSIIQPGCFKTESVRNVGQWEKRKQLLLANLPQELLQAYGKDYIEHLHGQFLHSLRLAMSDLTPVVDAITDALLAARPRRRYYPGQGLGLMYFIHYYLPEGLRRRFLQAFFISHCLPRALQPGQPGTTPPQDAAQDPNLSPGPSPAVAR
Kind of data set: Cellular assay, 11β-HSD2 activity in HepG2 cells. Format: cell-based. On the set-up: endogenous in cells; host or cells: HepG2 (ATCC HB-8065). The following applies: 4 hour pre-incubation, read-out: [C2] HSD2 cellular HepG2 Score. Here is the method:
The effects on 11β-HSD2 activity was studied in HepG2 and LCC-PK1-cells HepG2-cells (ATCC HB-8065) were seeded in 12 well plates at a density of 100,000′ cells/ml and grown at 37° C. in a humidified 5% CO2 atmosphere in MEM-Rega-3 medium supplemented with 10% heat inactivated foetal calf serum, 2 mM L-glutamine and sodium bicarbonate). Medium was refreshed twice a week.
Following a 4 hour pre-incubation with test compound, 0.5 μCi ^3H-cortisol or corticosterone, was added to the cultures. One hour later, the medium was extracted on Extrelut^3-columns with 15 ml diethyl ether and the extract was analysed by HPLC as described above.
As for the enzymatic assays, the compounds to be tested were taken from a stock is solution and tested at a final concentration ranging from −10^−5M to 3·10^−9M. From the thus obtained dose response curves, the pIC50 value was calculated and scored as follows; Score 1=pIC50 value<5, Score 2=pIC50 value in the range of 5 to 6, Score 3=pIC50 value>6. Some of the thus obtained results are summarized in the table below (in this table NT stands for Not Tested).

Data set [4] deals with T2, 11β-HSD2. As to the kind of experiment: Enzymatic assay, 11β-HSD2 dependent dehydrogenase activity. It is filed as biochemical. The following applies: recombinant protein, 100 nM cortisol, 45 minutes at 37° C.; read-out: [C1] HSD2-prot Dehydro Score. As for the experimental part:
The effects on the 11β-HSD2 dependent dehydrogenase activity was studied in a reaction mixture containing 0.1M sodium phosphate buffer pH 7.5, 300 μM NAD, 100 nM cortisol (of which 2 nM is 3H-radio labelled), 1 μl drug and/or solvent and 2.5 μg recombinant protein in a final volume of 100 μl.
as §1

Chain of 11β-HSD1 (Homo sapiens, UniProt P28845) (P28845 whole entry, species assumed): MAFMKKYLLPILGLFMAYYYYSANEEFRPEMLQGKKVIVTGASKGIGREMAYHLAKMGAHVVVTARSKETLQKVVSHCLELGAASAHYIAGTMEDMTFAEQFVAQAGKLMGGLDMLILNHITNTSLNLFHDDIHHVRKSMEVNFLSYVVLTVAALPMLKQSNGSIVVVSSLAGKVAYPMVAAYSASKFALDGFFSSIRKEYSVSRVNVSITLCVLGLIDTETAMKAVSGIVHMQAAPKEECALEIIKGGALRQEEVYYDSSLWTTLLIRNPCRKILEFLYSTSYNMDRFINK

Take `Cc1cccc(CC2CCN(C3C4CC5CC(C4)CC3C5)C2=O)c1F` (centres unmarked) [Compound 1]: the melting point (usually the temperature of the solid-liquid transition) was in the range of 101 to 102 °C. Further, the IC50 in data set [1] is less than 1000 nM. For the same molecule, in data set [2], the IC50 is less than 1000 nM. Also, in data set [3], the IC50 was more than 10 µM.
As for `Cc1cccc(CC2(C)CCN(C3C4CC5CC(C4)CC3C5)C2=O)c1F` (centres unmarked) [Compound 2], the melting point lay within 120.5 to 122 °C. Further, in data set [1], the IC50 is less than 1000 nM. Besides, in data set [2], the IC50 is less than 1000 nM. Moreover, the IC50 in data set [3] is more than 10 µM.
`COc1cccc(CC2CCN(C3C4CC5CC(C4)CC3C5)C2=O)c1` (centres unmarked) [Compound 3]: the results for the IC50 in data set [1], in data set [2] and in data set [3] were less than 1000 nM, less than 1000 nM and more than 10 µM, respectively.
For `O=C1C(Cc2cccc(OC(F)(F)F)c2)CCN1C1C2CC3CC(C2)CC1C3` (centres unmarked) [Compound 4], the IC50 in data set [2] was less than 1000 nM.
The same measure, in the same setting: then `O=C1C(Cc2cccc(Br)c2)CCN1C1C2CC3CC(C2)CC1C3` (centres unmarked) [Compound 5], with less than 1000 nM.
On the same count and under the same terms, then `N#Cc1cccc(CC2CCN(C3C4CC5CC(C4)CC3C5)C2=O)c1` (centres unmarked) [Compound 6], with less than 1000 nM.
On the same count and under the same terms, the result for `O=C1C(Cc2cccc(C(F)(F)F)c2F)CCN1C1C2CC3CC(C2)CC1C3` (centres unmarked) [Compound 7] reads less than 1000 nM.
Regarding `COc1cc(CC2CCN(C3C4CC5CC(C4)CC3C5)C2=O)cc(OC)c1` (centres unmarked) [Compound 8], the IC50 in data set [1] was less than 1000 nM; in data set [2], less than 1000 nM; in data set [3], more than 10 µM.
Regarding `O=C1C(Cc2cc(C(F)(F)F)cc(C(F)(F)F)c2)CCN1C1C2CC3CC(C2)CC1C3` (centres unmarked) [Compound 9], the IC50 in data set [2] is more than 10000 nM.
The same measure, in the same setting: the result for `O=C1C(Cc2cc(F)cc(C(F)(F)F)c2)CCN1C1C2CC3CC(C2)CC1C3` (centres unmarked) [Compound 10] reads 1000 to 10000 nM; that for `Cc1cc(C)cc(CC2CCN(C3C4CC5CC(C4)CC3C5)C2=O)c1` (centres unmarked) [Compound 11], less than 1000 nM; that for `Cc1cccc(C)c1CC1CCN(C2C3CC4CC(C3)CC2C4)C1=O` (centres unmarked) [Compound 12], more than 10000 nM.
Turning to `O=C1C(Cc2ccc(Cl)cc2)CCN1C1C2CC3CC(C2)CC1C3` (centres unmarked) [Compound 13], the figures for the IC50 in data set [1], in data set [2] and in data set [3] were less than 1000 nM, more than 10000 nM and more than 10 µM, respectively.
The matching figures for `O=C1C(Cc2ccc(F)cc2)CCN1C1C2CC3CC(C2)CC1C3` (centres unmarked) [Compound 14]: less than 1000 nM, less than 1000 nM and more than 10 µM.
For `O=C1C(Cc2ccc(OC(F)(F)F)cc2)CCN1C1C2CC3CC(C2)CC1C3` (centres unmarked) [Compound 15], in data set [2], the IC50 is more than 10000 nM.
For `Cc1ccc(CC2CCN(C3C4CC5CC(C4)CC3C5)C2=O)cc1` (centres unmarked) [Compound 16], the IC50 is less than 1000 nM in data set [1], less than 1000 nM in data set [2] and more than 10 µM in data set [3].
`CC1(Cc2ccc(OC(F)(F)F)cc2)CCN(C2C3CC4CC(C3)CC2C4)C1=O` (centres unmarked) [Compound 17]: in data set [2], the IC50 was less than 1000 nM.
The same measure, in the same setting: then `Cc1cccc(C)c1CC1(C)CCN(C2C3CC4CC(C3)CC2C4)C1=O` (centres unmarked) [Compound 18], with more than 10000 nM.
On the same count and under the same terms, then `Cc1cc(C)cc(CC2(C)CCN(C3C4CC5CC(C4)CC3C5)C2=O)c1` (centres unmarked) [Compound 19], with less than 1000 nM; and `COc1cc(CC2(C)CCN(C3C4CC5CC(C4)CC3C5)C2=O)cc(OC)c1` (centres unmarked) [Compound 20], with less than 1000 nM.
Still for that read-out and setting: the result for `COc1cccc(CC2CCCN(C3C4CC5CC(C4)CC3C5)C2=O)c1` (centres unmarked) [Compound 21] reads less than 1000 nM; that for `Cc1cccc(C)c1CC1CCCN(C2C3CC4CC(C3)CC2C4)C1=O` (centres unmarked) [Compound 22], more than 10000 nM.
In the case of `O=C1C(Cc2ccc(OC(F)(F)F)cc2)CCCN1C1C2CC3CC(C2)CC1C3` (centres unmarked) [Compound 23], the IC50 in data set [2] was more than 10000 nM.
Still for that read-out and setting: then `Cc1cc(C)cc(CC2CCCN(C3C4CC5CC(C4)CC3C5)C2=O)c1` (centres unmarked) [Compound 24], with more than 10000 nM.
Turning to `COc1cc(CC2CCCN(C3C4CC5CC(C4)CC3C5)C2=O)cc(OC)c1` (centres unmarked) [Compound 25], the IC50 in data set [2] was less than 1000 nM.
Same read-out and setting: the result for `Cc1cccc(CC2CCCN(C3C4CC5CC(C4)CC3C5)C2=O)c1F` (centres unmarked) [Compound 26] reads less than 1000 nM.
Still for that read-out and setting: then `COc1cccc(CC2(C)CCCN(C3C4CC5CC(C4)CC3C5)C2=O)c1` (centres unmarked) [Compound 27], with more than 10000 nM; and `COc1cc(CC2(C)CCCN(C3C4CC5CC(C4)CC3C5)C2=O)cc(OC)c1` (centres unmarked) [Compound 28], with more than 10000 nM.
For `COc1cccc(CC2(C)CCN(C3C4CC5CC(C4)CC3C5)C2=O)c1` (centres unmarked) [Compound 29], the IC50 in data set [1] is less than 1000 nM; in data set [2] it was less than 1000 nM; in data set [3] it was 1 to 10 µM.
Take `CC1(Cc2ccc(F)cc2)CCN(C2C3CC4CC(C3)CC2C4)C1=O` (centres unmarked) [Compound 30]: the IC50 was less than 1000 nM in data set [1], less than 1000 nM in data set [2] and more than 10 µM in data set [3].
In the case of `COc1cccc(CC2(Cc3cccc(OC)c3)CCCN(C3C4CC5CC(C4)CC3C5)C2=O)c1` (centres unmarked) [Compound 31], the IC50 in data set [2] was more than 10000 nM.
The same measure, in the same setting: the result for `CC1(Cc2ccccc2)CCN(C2C3CC4CC(C3)CC2C4)C1=O` (centres unmarked) [Compound 32] reads less than 1000 nM; that for `O=C1C(Cc2ccccc2)CCN1C1C2CC3CC(C2)CC1C3` (centres unmarked) [Compound 33], less than 1000 nM; that for `O=C1N(C2C3CC4CC(C3)CC2C4)C2CCC1(c1ccccc1)CC2` (centres unmarked) [Compound 34], more than 10000 nM.
Turning to `CC1(c2ccccc2)CCN(C2C3CC4CC(C3)CC2C4)C1=O` (centres unmarked) [Compound 35], the IC50 in data set [2] was less than 1000 nM.
The same measure, in the same setting: the result for `O=C1N(C2C3CC4CC(C3)CC2C4)C2CCC1(Cc1ccccc1)CC2` (centres unmarked) [Compound 36] reads less than 1000 nM.
In the case of `O=C1C(Cc2ccccc2)CCN1[C@@H]1CC[C@]2(O)CC3CC2[C@H]1C3` (some centres unmarked) [Compound 37], the IC50 was less than 1000 nM in data set [2] and more than 10 µM in data set [3].
In the case of `CC1(Cc2ccccc2)CCN([C@@H]2CC[C@]3(O)CC4CC3[C@H]2C4)C1=O` (some centres unmarked) [Compound 38], the IC50 is less than 1000 nM in data set [2] and more than 10 µM in data set [4].
As to `Cc1cccc(CC2CCN([C@@H]3CC[C@]4(O)CC5CC4[C@H]3C5)C2=O)c1F` (some centres unmarked) [Compound 39], the IC50 was less than 1000 nM in data set [2] and more than 10 µM in data set [4].
For `Cc1cccc(CC2(C)CCN([C@@H]3CC[C@]4(O)CC5CC4[C@H]3C5)C2=O)c1F` (some centres unmarked) [Compound 40], the IC50 was less than 1000 nM in data set [2], 1 to 10 µM in data set [3] and more than 10 µM in data set [4].

These data come from patent US7687644B2, “Adamantyl pyrrolidin-2-one derivatives as 11-beta hydroxysteroid dehydrogenase inhibitors” (Janssen Pharmaceutica NV, priority 2004, dated 2010).
